The source of these data is paper PMC8005375, “Massiliamide, a cyclic tetrapeptide with potent tyrosinase inhibitory properties from the Gram-negative bacterium Massilia albidiflava DSM 17472^T” (The Journal of Antibiotics, 2020).

The target of one series is tyrosinase (Agaricus bisporus, UniProt C7FF04). The experiment in a line: Tyrosinase inhibition assay (kit MAK257). It counts as biochemical. As to conditions: comparison of IC50 values with arbutin and kojic acid. How it is done: In brief, 20 µL massiliamide (1) with various concentrations (0.05–5 µM) was added into 50 µL tyrosinase enzyme solutions that contained 48 µL MAK257A buffer and 2 µL of tyrosinase. The mixture was then incubated for 10 min at 25°C, followed by the addition of 30 µL substrate solution, containing 23 µL MAK257A buffer, 2 µL tyrosinase substrate, and 5 µL tyrosinase enhancer. The final reaction mixture was then homogenized by shaking and immediately monitored at 510 nm using a Tecan Infinite 200 Pro microplate reader, applying the kinetic mode for 30-60 min. […] Each measurement was conducted in three independent replications.

In a further series the test system is S. aureus ATCC 2921. As to conditions: cation-adjusted Mueller-Hinton medium, twofold serial dilution (CLSI), 5 × 10^5 CFU per mL, overnight, 37°C.
In a further series the test system is B. subtilis 168. To be noted: cation-adjusted Mueller-Hinton medium, twofold serial dilution (CLSI), 5 × 10^5 CFU per mL, overnight, 37°C. How it is done: (§1) The minimal inhibitory concentration (MIC) was determined in a cation-adjusted Mueller-Hinton medium that contains casein, beef extract and starch by using a twofold serial dilution method according to the standards and guidelines of the Clinical and Laboratory Standards Institute (CLSI). In brief, a twofold serial dilution of the test compound was prepared in microtiter plates and seeded using a final inoculum of bacteria of 5 × 10^5 colony-forming units per mL. […] The strain panel included representative species of nosocomial pathogens, which are known as “ESKAPE” bacteria. Specifically, the following strains were used: Enterococcus faecium BM 4147–1, Staphylococcus aureus ATCC 29213, Klebsiella pneumoniae ATCC 12657, Acinetobacter baumannii 09987, Pseudomonas aeruginosa ATCC 27853 and Enterobacter aerogenes ATCC 13048. Bacillus subtilis 168 and Escherichia coli ATCC 25922 were used as further reference strains. The ATCC strains were provided by the American Type Culture Collection. A. baumannii 09987 was obtained from the University of Bonn, Germany.

In series [1] the test system is strain panel of "ESKAPE" bacteria, Bacillus subtilis 168 and Escherichia coli ATCC 25922. As to conditions: broth microdilution, up to the highest concentration tested (64 µg ml^−1). How it is done: as §1
On the technique in general: Broth dilution looks for growth in wells or tubes with falling amounts of substance.

The next series has as its system P. aeruginosa ATCC 27853. To be noted: cation-adjusted Mueller-Hinton medium, twofold serial dilution (CLSI), 5 × 10^5 CFU per mL, overnight, 37°C. How it is done:
as §1

Another series concerns E. aerogenes ATCC 13048. As to conditions: cation-adjusted Mueller-Hinton medium, twofold serial dilution (CLSI), 5 × 10^5 CFU per mL, overnight, 37°C. How it is done:
as §1

For another series, the system named is E. coli ATCC 25922. As to conditions: cation-adjusted Mueller-Hinton medium, twofold serial dilution (CLSI), 5 × 10^5 CFU per mL, overnight, 37°C. How it is done:
as §1

For a further series, the system named is E. faecium BM 4147-1. As to conditions: cation-adjusted Mueller-Hinton medium, twofold serial dilution (CLSI), 5 × 10^5 CFU per mL, overnight, 37°C. How it is done: as §1
A further series relates to A. baumannii 09987. As to conditions: cation-adjusted Mueller-Hinton medium, twofold serial dilution (CLSI), 5 × 10^5 CFU per mL, overnight, 37°C. How it is done: as §1
The subject of a further series is K. pneumonia ATCC 12657. To be noted: cation-adjusted Mueller-Hinton medium, twofold serial dilution (CLSI), 5 × 10^5 CFU per mL, overnight, 37°C. How it is done: as §1
The next series has as its system HeLa cell line. To be noted: HeLa cell line at 64 µg ml^−1; resazurin assay. How it is done: The cytotoxicity test against the HeLa human cervical carcinoma cell line was performed in RPMI cell culture medium supplemented with 10% fetal bovine serum using the 7-hydroxy-3H-phenoxazin-3-one-10-oxide (resazurin) assay. A twofold serial dilution of the test compounds was prepared in duplicates in a microtiter plate and seeded with trypsinized HeLa cells to a final cell concentration of 1 × 10^4 cells per well. After 24 h incubation at 37°C, 5 % CO2, 95% relative humidity, resazurin was added at a final concentration of 200 µM, and cells were again incubated overnight. Cell viability was assessed by determining the reduction of resazurin to the fluorescent resorufin. Fluorescence was measured in a TECAN M200 reader at an excitation wavelength of 560 nm and an emission wavelength of 600 nm in relation to the untreated control.
(The colour change of resazurin is a common sign of viable cells or microbes.)

Square brackets hold non-standard residues; d marks the D form. Peptide text beside a SMILES is read from it.

In general, MIC refers to the smallest concentration in the dilution series that meets the test's criterion for growth inhibition. A high value points to a need for much substance.

tyrosinase, sequence (C7FF04 whole entry): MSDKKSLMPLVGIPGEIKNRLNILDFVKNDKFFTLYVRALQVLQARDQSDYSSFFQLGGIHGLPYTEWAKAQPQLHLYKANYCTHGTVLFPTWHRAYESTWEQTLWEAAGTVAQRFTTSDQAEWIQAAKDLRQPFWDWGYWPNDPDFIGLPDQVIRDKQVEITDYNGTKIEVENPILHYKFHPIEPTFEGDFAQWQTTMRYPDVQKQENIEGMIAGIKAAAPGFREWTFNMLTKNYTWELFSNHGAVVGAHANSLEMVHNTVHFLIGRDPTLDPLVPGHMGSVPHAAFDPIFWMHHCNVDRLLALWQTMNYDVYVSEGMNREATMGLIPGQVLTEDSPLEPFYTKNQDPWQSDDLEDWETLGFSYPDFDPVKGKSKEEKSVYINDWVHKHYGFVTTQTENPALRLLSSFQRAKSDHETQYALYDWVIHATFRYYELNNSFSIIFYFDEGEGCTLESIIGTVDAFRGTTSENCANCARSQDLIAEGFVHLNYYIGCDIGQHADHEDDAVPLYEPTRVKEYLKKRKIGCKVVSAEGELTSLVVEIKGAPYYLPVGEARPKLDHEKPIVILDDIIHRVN
Experimental for S. aureus ATCC 2921: The minimal inhibitory concentration (MIC) was determined in a cation-adjusted Mueller-Hinton medium that contains casein, beef extract and starch by using a twofold serial dilution method according to the standards and guidelines of the Clinical and Laboratory Standards Institute (CLSI) [10]. In brief, a twofold serial dilution of the test compound was prepared in microtiter plates and seeded using a final inoculum of bacteria of 5 × 10^5 colony-forming units per mL.

For `CC(C)[C@H]1NC(=O)[C@@H]2CCCN2C(=O)[C@@H](Cc2ccc(O)cc2)NC(=O)[C@@H]2CCCN2C1=O` [Massiliamide (1)] (cyclo(P[dY]P[dV])), at tyrosinase, the “Tyrosinase inhibition compared with positive controls (in words)” value is “surpassed readily the activities of the positive controls arbutin and kojic acid”. Besides, the MIC in the series with S. aureus ATCC 2921, with B. subtilis 168, in the series with P. aeruginosa ATCC 27853, against E. aerogenes ATCC 13048, against E. coli ATCC 25922 and in the series on E. faecium BM 4147-1 was greater than 64 µg/mL each time. Besides, the MIC with A. baumannii 09987 and against K. pneumonia ATCC 12657 was greater than 64 µg/mL in each case. Further, in series [1], the “Antimicrobial activity (in words)” value is “inactive up to the highest concentration tested”. In addition, the “Cytotoxicity (in words)” value in the series with HeLa cell line is “no cytotoxicity”.
